The numbers were not newly measured in US20080213374A1, “NANOPARTICULATE SORAFENIB FORMULATIONS” (Elan Pharma International Limited, priority 2006, published 2008), which cites them from elsewhere.

Structures are written as SMILES.

`CNC(=O)c1cc(Oc2ccc(NC(=O)Nc3ccc(Cl)c(C(F)(F)F)c3)cc2)ccn1` [Sorafenib]: the solubility in water result is given as “practically insoluble”.

With `CNC(=O)c1cc(Oc2ccc(NC(=O)Nc3ccc(Cl)c(C(F)(F)F)c3)cc2)ccn1.Cc1ccc(S(=O)(=O)O)cc1` [Sorafenib tosylate, 4-(4-{3-[4-Chloro-3-(trifluoromethyl)phenyl]ureido}phenoxy)-N2-methylpyridine-2-carboxamide 4-methylbenzenesulfonate], the solubility in water entry is reported as “practically insoluble”. Further, the “solubility in PEG 400” value (PEG 400) is recorded as “soluble”. The “solubility in aqueous media” value (aqueous media) is on record as “practically insoluble”. In addition, the solubility in ethanol entry (ethanol) is recorded as “slightly soluble”.
